Laboratory results as given in article PMC3003687, “α-Galactosylceramide Analogs with Weak Agonist Activity for Human iNKT Cells Define New Candidate Anti-Inflammatory Agents” (PLoS ONE, 2010).
pEC50: −log10 of the molar value.

Assays:
[1] = tested on: iNKT cells in PBMCs from healthy donors; assay: Ex vivo staining of PBMCs from healthy donors with analog-loaded hCD1d tetramers; format: cell-based, human
Excerpt: Our panel of clones might be limited to iNKT cells able to expand upon PHA stimulation and might be representative of a fraction only of the iNKT cell repertoire. […] The frequencies of iNKT cells measured using tetramers loaded with N-aromatic branched analogs were lower in some or all PBMCs tested. A lower detection might be explained by weaker efficiency of staining, since lower MFI values were also seen with iNKT cell clones stained with tetramers loaded with these glycolipids.
Figure 4 Ex vivo analysis of PBMC with CD1d tetramers loaded with αGalCer analogs. (A) Flow cytometric analyses were performed after labeling of PBMCs from healthy donors with hCD1d tetramers loaded with each of the indicated glycolipids. Representative dot plots generated with PBMCs from one normal donor, with the analog tested indicated at the top of each plot and the percentages of tetramer^+ CD3^+ cells indicated in the top right quadrants. The dot plots show events gating as live lymphocytes (PI negative and FSC/SSC gated lymphocytes). (B) Comparison of tetramer^+ cell frequencies in PBMC from three different donors. The frequencies of cells specifically stained with hCD1d tetramers loaded with the indicated glycolipids (or vehicle (Veh) only (i.e., DMSO)) are shown as the percentage of total iNKT cells (i.e., cells staining with mAb 6B11^+, specific for the invariant TCRα chain of iNKT cells). Similar results were obtained for three additional PBMC donors (not shown). TEXT PRINTED IN THE PICTURE: (A) Vehicle: 0.03 | (A) KRN7000: 0.56 | (A) C20:2: 0.52 | (A) C20:4: 0.58 | (A) Tol: 0.16 | (A) DFB: 0.56 | (A) BB: 0.29 | (A) AD: 0.49 DOUBTS OF THE COPYIST ABOUT THIS PICTURE: Panel A: the numbers in the upper right quadrants are printed without a measure or unit; only the axes (hCD1d tetramer / CD3) are printed

human iNKT cells = details: cited from earlier work
human iNKT cell clones [2] = assay: Cytokine responses of iNKT cell clones, Hela-CD1d cells compared with monocyte-derived DC as APC; format: cell-based; details: limited analog concentrations
Excerpt: CD1d-transfected Hela cells might not be representative of the presentation by DCs, so we performed a comparative analysis, with more limited analog concentrations, between Hela-CD1d cells and monocyte-derived DC (Supplementary Figure S5). […] However we observed a higher cytokine levels produced upon stimulation with Hela cells, which can be explained by a higher CD1d expression.
Supplementary file pone.0014374.s005.tif: Figure S5 Comparison of cytokine responses of human iNKT cell clones between CD1d-transfected HeLa cells and Dendritic Cells, with a limited range of analog concentrations. CD1d-transfected HeLa cells (black bars) and monocyte-derived DCs (white bars) were incubated overnight in parallel with increasing concentrations of KRN7000, C20:2 (tested from left to right at 0.1, 1, 10 and 100 nM,) and higher concentrations of other analogs (10, 100 nM, 1 and 10 µM), then used as APC for iNKT cell stimulation. After 24 h of co-culture, supernatants were harvested, and cytokine levels were measured by ELISA. The sensitivity of detection was 27.4 pg/mL for IL-4 and 82.3 pg/mL for IL-13 and IFNγ. The data shown were generated with a CD4+ iNKT cell clone (HDD3) and a double negative (DN, HDE3). (0.12 MB TIF) Click here for additional data file.

human iNKT cell clones [3] = assay: Cytokine ELISA of human iNKT cell clones stimulated with glycolipid-pulsed CD1d-transfected HeLa cells; format: cell-based; details: for dose inducing the lowest activation state (IL-13 and GM-CSF secretion): CD1d-transfected Hela cells and dendritic cells as APCs; for iNKT cell clone cytokine response / agonist activity: dose range, IFNγ, IL-4, IL-13, clones HDD3, HDD11, HDE3, HDA7
Description: Capture ELISA assays were used for measurement of cytokine responses of human iNKT cells to αGalCer analogs. One day prior to the experiment, CD1d transfected HeLa cells were plated at 25×10^3 cells/well in 100 µL of medium in flat-bottom 96 well plates. Glycolipids were then added in 100 µL of medium to give final concentrations ranging from 0.05 to 10^4 nM. The APCs were incubated for approximately 18 hours with the glycolipids and then irradiated (10,000 Rad) and washed twice with PBS prior to addition of 25×10^3 iNKT cells well in 300 µL. Supernatants were harvested after 24 hours of co-culture and stored frozen at -20°C. After thawing, aliquots of the supernatants were assayed for specific cytokines by ELISA using capture and biotin-labeled detection antibody pairs specific for GM-CSF, IL-2, IL-4, IL-12p70 and IL-13 (all obtained from BD Biosciences), IFNγ (Thermo-Scientific) or IL-18 (MBL). Specific signals were developed using HRP- conjugated streptavidin (BD Biosciences) and Turbo TMB substrate (Thermo-Scientific). Supernatants were tested pure and/or diluted to give values within a quantitative linear standard curve generated with recombinant cytokines. Curves of dose-dependent cytokine responses and graphs were plotted using the Graphpad Prism Software. EC50 values were calculated using the function log (agonist) response with variable slope, and statistical analyses were carried out using the same software. To calculate concentration-dependent cytokine ratios, IL-4/IFNγ and IL-13/IFNγ ratios were calculated using cytokine values from which background levels (i.e. levels in cultures receiving DMSO vehicle alone) were subtracted. Ratios were calculated by dividing IL-4 or IL-13 concentrations in pg/mL by IFNγ concentration in ng/mL.

[4] = CD1d-transfected HeLa APC, 24 h co-culture, ELISA

SMILES: CCCCC/C=C\C/C=C\CCCCCCCCCC(=O)N[C@@H](CO[C@H]1O[C@H](CO)[C@H](O)[C@H](O)[C@H]1O)[C@H](O)[C@H](O)CCCCCCCCCCCCCC [C20:2]
- iNKT cell frequencies with loaded tetramers versus staining with Vα24Jα18 specific Ab 6B11 [1]: Comparable iNKT cell frequencies
- agonist activity for human iNKT cells (human iNKT cells): strong agonist
- agonist strength with Hela-CD1d cells and DC (human iNKT cell clones [2]): strong agonists
- dose inducing the lowest activation state (IL-13 and GM-CSF secretion) (human iNKT cell clones [3]): < 1 nM
- iNKT cell clone cytokine response / agonist activity (human iNKT cell clones [3]): strong agonist activity

SMILES: CCCCC/C=C\C/C=C\C/C=C\C/C=C\CCCC(=O)N[C@@H](CO[C@H]1O[C@H](CO)[C@H](O)[C@H](O)[C@H]1O)[C@H](O)[C@H](O)CCCCCCCCCCCCCC [C20:4]
- iNKT cell frequencies with loaded tetramers versus staining with Vα24Jα18 specific Ab 6B11 [1]: Comparable iNKT cell frequencies
- pEC50 (human iNKT cell clones [3]; Homo sapiens, iNKT, HDD3 clone, IL-4 levels did not reach a plateau): < 5.00
- iNKT cell clone cytokine response / agonist activity (human iNKT cell clones [3]): substantially lower iNKT cell response

SMILES: CCCCCCCCCCCCCCCCCCCCCCCCCC(=O)N[C@@H](CO[C@H]1O[C@H](CO)[C@H](O)[C@H](O)[C@H]1O)[C@H](O)[C@H](O)CCCCCCCCCCCCCC [KRN7000, reference compound]
- iNKT cell frequencies with loaded tetramers versus staining with Vα24Jα18 specific Ab 6B11 [1]: Comparable iNKT cell frequencies
- agonist strength with Hela-CD1d cells and DC (human iNKT cell clones [2]): strong agonists
- concentration at which IL-13 production was induced (human iNKT cell clones [3]; [4]): ≤ 0.1 nM
- concentration reaching maximal IL-13 production (human iNKT cell clones [3]; [4]): approximately 1 nM
- higher concentration required for IFNγ to be induced and reach plateau, relative to IL-13 (human iNKT cell clones [3]; [4]): approximately 1 log
- concentration saturating IL-4 production (human iNKT cell clones [3]; CD1d-transfected HeLa APC, data not shown): very high KRN7000 concentrations in the µM range
- dose inducing the lowest activation state (IL-13 and GM-CSF secretion) (human iNKT cell clones [3]): < 1 nM
- iNKT cell clone cytokine response / agonist activity (human iNKT cell clones [3]): strong agonist activity
